This is an account of results in patent US20050250784A1 (Miikana Therapeutics Corporation, priority 2004, published 2005).

The subject of test [1] is HDAC (HeLa cell nuclear extract, a mosaic of HDAC enzymes). In words: In vitro fluorescent histone deacetylase assay (Biomol HDAC fluorescent activity kit). It counts as biochemical. As to conditions: compound concentration 100 μM; HeLa cell nuclear extract as HDAC source; substrate 50 μM, 10 min, room temperature. On the procedure:
Histone deacetylase (HDAC) activity assays were performed using the HDAC fluorescent activity assay/drug discovery kit (Biomol Research Laboratories, Plymouth Meeting, Pa.) essentially according to the manufacturer's instructions. The included HeLa cell nuclear extract, which contains a mosaic of HDAC enzymes and other nuclear factors, was used as the source of HDAC activity. The final substrate concentration in the assay mixture was 50 μM. The reaction was allowed to proceed for 10 min at room temperature before stopping the reaction. Test compounds were prepared as 20 mM stock solutions in DMSO (Molecular Biology grade, Sigma-Aldrich Co., St. Louis, Mo.) and stored at −70° C. Serial dilutions of test compounds were prepared in assay buffer immediately prior to testing. DMSO was determined in a separate trial to have no significant effect on the activity of this assay at concentrations up to 5%; the final DMSO concentration in the wells was no more than 2% and therefore DMSO effects were safely neglected. Assays were performed in white polystyrene 96-well half-area assay plates (Corning, Corning, N.Y.) and measured on a Wallace 1420 fluorescent plate reader (Wallac Oy, Turku, Finland) with an excitation wavelength of 355 nm, an emission wavelength of 460 nm, and a 1 sec signal averaging time.

Test [2] deals with MCF7 cells. In words: Whole cell cytotoxicity assay: Sulforhodamine B. It counts as cell-based, Human. The following applies: Homo sapiens; compound concentration 100 μM; MCF7 cell growth, 48 hours with drug, SRB staining. Here is the method: The following procedure can be found on the Developmental Therapeutics Program NCI/NIH web site at http://dtp.nci.nih.gov/brancehes/btb/ivclsp.html.
1. Human tumor cell lines of HT29, A549 and MCF7 are grown in DMEM containing 10% fetal bovine serum and 2 mM L-glutamine. Cells are plated in a 96 well plate at a density of 5000 cells per well in 100 uL of growth medium and incubated at 37° C., 5% CO2, for 24 hours prior to the addition of experimental compounds.
2. Experimental drugs are solubilized in DMSO for a final concentration of 20 mM immediately prior to use. Drugs are further diluted in growth media for a total of nine drug concentrations and a growth control. At the 24 hour time point, one plate of cells is fixed in situ with TCA as a measurement of the cell population at time zero, or the time of drug addition.
3. The plates are further incubated with drug for an additional 48 hours.
4. The cells are fixed in situ by gently aspirating off the culture media and then adding 50 uL of ice cold 10% TCA per well and incubated at 4° C. for 60 minutes. The plates are washed with tap water five times and allowed to air dry for 5 minute.
5. 50 ul of a 0.4% (w/v) Sulforhodamine B solution in 1% (v/v) acetic acid is added per well and incubated for 30 minutes at room temperature.
6. Following staining, plates are washed five times with 1% acetic acid to remove any unbound dye and then allowed to air dry for 5 minutes.
7. Stain is solubilized with 100 uL of 10 mM Tris pH 10.5 per well and placed on an orbital rotator for 5 minutes.
8. Absorbance is read at 570 nm.

As for `Cc1cccc(Cl)c1S(=O)(=O)N1CCN(c2ncc(C(=O)NO)s2)CC1` [Example 238, 2-[4-(2-methyl-6-chlorophenylsulfonyl)-piperazin-1-yl]-thiazole-5-carboxylic acid hydroxyamide], the “% inhibition HDAC @ 100 μM” value in test [1] is on record as 100%.

As to `O=C(NO)c1cnc(N2CCN(S(=O)(=O)c3cc4ccccc4s3)CC2)s1` [Example 243, 2-[4-(2-benzothiphenesulfonyl)-piperazin-1-yl]-thiazole-5-carboxylic acid hydroxyamide], the “% inhibition HDAC @ 100 μM” value in test [1] was determined as 99%.

`CSc1nccc(-c2ccc(S(=O)(=O)N3CCN(c4ncc(C(=O)NO)s4)CC3)s2)n1` [Example 245, 2-[4-(2-{2-methylthiopyrimidine-4-yl}-5-thiophenesulfonyl)-piperazin-1-yl]-thiazole-5-carboxylic acid hydroxyamide]: in test [1], the “% inhibition HDAC @ 100 μM” value was 95%.

Take `O=C(NO)c1cnc(N2CCN(S(=O)(=O)c3ccc4nsnc4c3)CC2)s1` [Example 246, 2-[4-(2,1,3-benzothiadiazole-5-sulfonyl)-piperazin-1-yl]-thiazole-5-carboxylic acid hydroxyamide]: the “% inhibition HDAC @ 100 μM” value in test [1] came out at 98%.

In the case of `O=C(NO)c1cnc(N2CCN(S(=O)(=O)c3ccc(Oc4ccccc4)nc3)CC2)s1` [Example 247, 2-[4-(2-phenoxypyridine-5-sulfonyl)-piperazin-1-yl]-thiazole-5-carboxylic acid hydroxyamide], the “% inhibition HDAC @ 100 μM” value in test [1] came to 96%.

`O=C(NO)c1cnc(N2CCN(S(=O)(=O)c3cccc(-c4ccccc4)c3)CC2)s1` [Example 251, 2-[4-(3-biphenylsulfonyl)piperazin-1-yl]-thiazole-5-carboxylic acid hydroxyamide]: in test [1], the “% inhibition HDAC @ 100 μM” value is on record as 100%.

Consider `CCCCS(=O)(=O)N1CCN(c2ncc(C(=O)NO)s2)CC1` [Example 253, 2-[4-(n-butylsulfonyl)-piperazin-1-yl]-thiazole-5-carboxylic acid hydroxyamide], for which the “% inhibition HDAC @ 100 μM” value in test [1] came out at 94%.

For the compound `O=C(NO)c1cnc(N2CCN(S(=O)(=O)c3ccc(Br)s3)CC2)s1` [Example 255, 2-{4-[(5-bromothien-2-yl)sulfonyl]piperazin-1-yl}-N-hydroxy-1,3-thiazole-5-carboxamide], the “% inhibition HDAC @ 100 μM” value in test [1] is 29%.

For `O=C(NO)c1cnc(N2CCN(S(=O)(=O)c3ccc(-c4ccc5c(c4)OCO5)cc3)CC2)s1` [Example 260, 2-(4-{[4-(1,3-benzodioxol-5-yl)phenyl]sulfonyl}piperazin-1-yl)-1,3-thiazole-5-carboxylic acid hydroxyamide], the “% inhibition HDAC @ 100 μM” value in test [1] was determined as 99%.

As to `O=C(NO)c1cnc(N2CCN(S(=O)(=O)c3ccc(-c4cccc(F)c4)cc3)CC2)s1` [Example 261], the “% inhibition HDAC @ 100 μM” value in test [1] was determined as 95%.

On to `O=C(NO)c1cnc(N2CCN(S(=O)(=O)c3ccc(-c4cccc(CN5CCCCC5)c4)cc3)CC2)s1` [Example 273], for which the “% inhibition HDAC @ 100 μM” value in test [1] is 100%.

Regarding `O=C(NO)c1cnc(N2CCN(S(=O)(=O)c3ccc(-c4ccsc4CN4CCCC4)cc3)CC2)s1` [Example 282, 2-(4-[4-{(2-(pyrrolidin-1-ylmethyl)-thien-3-yl)phenylsulfonyl}]piperazin-1-yl)-1,3-thiazole-5-carboxylic acid hydroxyamide], in test [1], the “% inhibition HDAC @ 100 μM” value was 99%.

For the compound `CN1CCN(Cc2cccc(-c3ccc(S(=O)(=O)N4CCN(c5ncc(C(=O)NO)s5)CC4)cc3)c2)CC1` [Example 284], the “% inhibition HDAC @ 100 μM” value in test [1] stood at 100%.

For `CCN(C)Cc1cccc(-c2ccc(S(=O)(=O)N3CCN(c4ncc(C(=O)NO)s4)CC3)cc2)c1` [Example 286, 2-{4-[(3′-[ethyl(methyl)amino]methyl]-1,1′-biphenylsulfonyl]piperazin-1-yl}-1,3-thiazole-5-carboxylic acid hydroxyamide], the “% inhibition HDAC @ 100 μM” value in test [1] is listed as 99%.

In turn, `CNCc1cccc(-c2ccc(S(=O)(=O)N3CCN(c4ncc(C(=O)NO)s4)CC3)cc2)c1` [Example 318, 2-{4-[3′-{[methylamino]methyl}-1,1′-biphenylsulfonyl]piperazin-1-yl}-1,3-thiazole-5-carboxylic acid hydroxyamide] showed an inhibition at 100 µM in test [2] of 86%.

In test [2], `CC(=O)NCc1cccc(-c2ccc(S(=O)(=O)N3CCN(c4ncc(C(=O)NO)s4)CC3)cc2)c1` [Example 319, 2-{4-[3′-{[N-acetylamino]methyl}-1,1′-biphenylsulfonyl]piperazin-1-yl}-1,3-thiazole-5-carboxylic acid hydroxyamide] displayed an inhibition at 100 µM of 89%.

For `COCc1cccc(-c2ccc(S(=O)(=O)N3CCN(c4ncc(C(=O)NO)s4)CC3)cc2)c1` [Example 320, 2-{4-[3′-{methoxymethyl}-1,1′-biphenylsulfonyl]piperazin-1-yl}-1,3-thiazole-5-carboxylic acid hydroxyamide], the inhibition at 100 µM in test [2] amounted to 92%.

In turn, `O=C(NO)c1cnc(N2CCN(S(=O)(=O)c3ccc(-c4ccccc4CN4CCCC4)cc3)CC2)s1` [Example 321, 2-{4-[2′-{pyrrolidin-1-ylmethyl}-1,1′-biphenylsulfonyl]piperazin-1-yl]-1,3-thiazole-5-carboxylic acid hydroxyamide] gave an inhibition at 100 µM in test [2] of 95%.

As to `O=C(NO)c1cnc(N2CCN(S(=O)(=O)c3cccc(OC(F)F)c3)CC2)s1` [Example 323, 2-(4-{[3-(difluoromethoxy)phenyl]sulfonyl}piperazin-1-yl)-1,3-thiazole-5-carboxylic acid hydroxyamide], testing at 100 µM in test [2] gave an inhibition of 100%.

Turning to `Cc1ccc(S(=O)(=O)N2CCN(c3ncc(C(=O)NO)s3)CC2)cc1[N+](=O)[O-]` [Example 324, 2-{4-[(4-methyl-3-nitrophenyl)sulfonyl]piperazin-1-yl}-1,3-thiazole-5-carboxylic acid hydroxyamide], the inhibition at 100 µM in test [2] came out at 96%.

The compound `COc1ccc(OC)c(S(=O)(=O)N2CCN(c3ncc(C(=O)NO)s3)CC2)c1` [Example 325, 2-{4-[(2,5-dimethoxyphenyl)sulfonyl]piperazin-1-yl}-1,3-thiazole-5-carboxylic acid hydroxyamide] yielded an inhibition at 100 µM in test [2] of 98%.

On to `Cc1ccc(C)c(S(=O)(=O)N2CCN(c3ncc(C(=O)NO)s3)CC2)c1` [Example 326, 2-{4-[(2,5-dimethylphenyl)sulfonyl]piperazin-1-yl}-1,3-thiazole-5-carboxylic acid hydroxyamide], for which testing at 100 µM in test [2] gave an inhibition of 98%.

Take `Cc1ccc(S(=O)(=O)N2CCN(c3ncc(C(=O)NO)s3)CC2)c(CN2CCCC2)c1` [Example 327, 2-(4-{[2-(pyrrolidin-1-ylmethyl)-4-methylphenyl]sulfonyl}piperazin-1-yl)-1,3-thiazole-5-carboxylic acid hydroxyamide]: 100 µM produced 92% inhibition in test [2].

Regarding `O=C(NO)c1cnc(N2CCN(S(=O)(=O)c3ccc(N4CCCC4)c(F)c3)CC2)s1` [Example 328, 2-(4-{[3-fluoro-4-(pyrrolidin-1-yl)phenyl]sulfonyl}piperazin-1-yl)-1,3-thiazole-5-carboxylic acid hydroxyamide], in test [2], the inhibition at 100 µM stood at 96%.

`O=C(NO)c1cnc(N2CCN(S(=O)(=O)c3ccc(N4CCCCC4)cc3)CC2)s1` [Example 329, 2-(4-{[4-(piperidin-1-yl)phenyl]sulfonyl}piperazin-1-yl)-1,3-thiazole-5-carboxylic acid hydroxyamide] had an inhibition at 100 µM in test [2] of 97%.

Consider `O=C(NO)c1cnc(N2CCN(S(=O)(=O)c3ccc(N4CCOCC4)cc3)CC2)s1` [Example 330, 2-(4-{[4-(morpholin-4-yl)phenyl]sulfonyl}piperazin-1-yl)-1,3-thiazole-5-carboxylic acid hydroxyamide], for which, in test [2], the inhibition at 100 µM turned out to be 91%.

The compound `O=C(NO)c1cnc(N2CCN(S(=O)(=O)C(F)(F)F)CC2)s1` [Example 331, 2-{4-[(trifluoromethyl)sulfonyl]piperazin-1-yl}-1,3-thiazole-5-carboxylic acid hydroxyamide] had an inhibition at 100 µM in test [2] of 76%.

Consider `CCS(=O)(=O)N1CCN(c2ncc(C(=O)NO)s2)CC1` [Example 332, 2-{4-[ethylsulfonyl]piperazin-1-yl}-1,3-thiazole-5-carboxylic acid hydroxyamide], for which, in test [2], the inhibition at 100 µM was determined as 30%.
